Measurements from ChEMBL document CHEMBL5131389, “PSMA-targeted small-molecule docetaxel conjugate: Synthesis and preclinical evaluation” (Eur J Med Chem, 2022).

Legend:
[1] = test system: CWR22R; assay: Antitumor activity against human 22Rv1 cells xenografted in Balb/c nude mouse assessed as tumor growth inhibition at 10 mg/kg, ip administered once in two days for three times and measured 4 days after the end of treatment relative to control; assay type: functional; settings: 22Rv1, 240 h, time 10 day, read-out: TGI
[2] = Toxicity in Balb/c nude mouse xenografted with human 22Rv1 cells assessed as animal death at 30 mg/kg, ip measured upto 30 days; assay type: organism-based, CWR22R; settings: in vivo, 720 h, time < 30 day
[3] = Acute toxicity in Wistar rat assessed as animal death at 15 to 279 mg/kg, iv administered for 14 days as pluronic F127 formulation and measured after 3 days; assay type: organism-based; settings: in vivo, 408 h, dose 15-279 mg/kg, time 17 day
[4] = Acute toxicity in ICR mouse assessed as decrease in body weight administered intravenously as pluronic F127 formulation and measured for 14 days; settings: in vivo, iv, 336 h, dose 183-960 mg/kg, time 14 day
[5] = Clearance in Soviet Chinchilla rabbit at 8.1 mg/kg, iv administered as pluronic F127 formulation measured upto 72 hrs by high-performance liquid chromatography tandem mass spectrometric analysis; assay type: ADME, organism-based, Oryctolagus cuniculus; settings: in vivo
[6] = Subchronic toxicity in Wistar rat assessed as decrease in body weight at 58 mg/kg, iv administered as pluronic F127 formulation daily for 28 days; assay type: organism-based; settings: in vivo, 672 h, time 28 day
[7] = Chronic toxicity in rat assessed as hair loss at 15 to 18.45 mg/kg, iv administered as pluronic F127 formulation at 4 intervals for 21 days and observed 3 weeks post last injection; assay type: organism-based; settings: in vivo, 2544 h, dose 15-18.45 mg/kg, time 106 day
[8] = Chronic toxicity in rat assessed as decrease in relative mass of testes administered intravenously as pluronic F127 formulation at 4 intervals for 21 days and observed 3 weeks post last injection relative to control; settings: in vivo, iv, 2544 h, time 106 day

Structure (SMILES): CC(=O)O[C@@]12CO[C@@H]1C[C@H](O)[C@@]1(C)C(=O)[C@H](O)C3=C(C)[C@@H](OC(=O)[C@H](OC(=O)CCCc4cn(CCCNC(=O)[C@H](Cc5ccc(O)cc5)NC(=O)[C@H](Cc5ccccc5)NC(=O)CCC(=O)NCCCCCC(=O)N(CCCC[C@H](NC(=O)N[C@@H](CCC(=O)O)C(=O)O)C(=O)O)Cc5cccc(Cl)c5)nn4)[C@@H](NC(=O)OC(C)(C)C)c4ccccc4)C[C@@](O)([C@@H](OC(=O)c4ccccc4)[C@H]21)C3(C)C
- inhibition in vivo at 10 mg/kg [1]: 88%
- Activity [2]: Toxic
- Activity [3]: Toxic
- Activity [4]: Toxic
- clearance [5]: 0.483 mL/min/kg
- Activity [6]: Toxic
- Activity [7]: Non-Toxic
- Activity [8]: Toxic
